Assay results published in ChEMBL document CHEMBL1201862, “PubChem BioAssay data set” (2004).
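Following 48 hours of exposure in 96-well plates, responses at five concentrations were used to interpolate endpoints linearly. GI50 = concentration required for 50% inhibition of growth.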 Activity calls are given as the source filed them. Rule as the data show it: active = GI50 up to about 1.1 µM and inactive = higher.

Columns and labels:
Test in all cases: inhibition of tumour cell growth, NCI panel, 48 h
CCRF-CEM = tested on: CCRF-CEM
OVCAR-3 = tested on: OVCAR-3
KM12 = tested on: KM12
COLO 205 = tested on: COLO 205
HCC 2998 = tested on: HCC 2998
A498 = tested on: A498
M14 = tested on: M14
NCI-H460 = tested on: NCI-H460
SNB-19 = tested on: SNB-19
UO-31 = tested on: UO-31
OVCAR-5 = tested on: OVCAR-5
HOP-62 = tested on: HOP-62
ACHN = tested on: ACHN
HL-60 = tested on: HL-60
HCT-15 = tested on: HCT-15
T47D = tested on: T47D
MCF7 = tested on: MCF7
PC-3 = tested on: PC-3
MDA-MB-435 = tested on: MDA-MB-435
MDA-MB-231 = tested on: MDA-MB-231

Compound | GI50 (CCRF-CEM) | GI50 (OVCAR-3) | GI50 (KM12) | GI50 (COLO 205) | GI50 (HCC 2998) | GI50 (A498) | GI50 (M14) | GI50 (NCI-H460) | GI50 (SNB-19) | GI50 (UO-31) | GI50 (OVCAR-5) | GI50 (HOP-62) | GI50 (ACHN) | GI50 (HL-60) | GI50 (HCT-15) [µM] | GI50 (T47D) | GI50 (MCF7) | GI50 (PC-3) | GI50 (MDA-MB-435) | GI50 (MDA-MB-231)
COc1ccc(OCC(=O)O)c2c1CCCC2=O | > 100 µM (inactive) | > 100 µM (inactive) | > 100 µM (inactive) | > 100 µM (inactive) | > 100 µM (inactive) | > 100 µM (inactive) | > 100 µM (inactive) | > 100 µM (inactive) | > 100 µM (inactive) | > 100 µM (inactive) | > 100 µM (inactive) | > 100 µM (inactive) | > 100 µM (inactive) | > 100 µM (inactive) | > 100 | – | – | – | – | –
COC(=O)/C=C/C1C2C3(CCC(C)C12C)OCCS3 (stereo not drawn) | 34.3 µM (inactive) | > 100 µM (inactive) | > 100 µM (inactive) | > 100 µM (inactive) | > 100 µM (inactive) | > 100 µM (inactive) | > 100 µM (inactive) | > 100 µM (inactive) | > 100 µM (inactive) | > 100 µM (inactive) | > 100 µM (inactive) | > 100 µM (inactive) | > 100 µM (inactive) | > 100 µM (inactive) | > 100 | – | – | – | – | –
CN(C)C(=S)/N=c1\ss/c(=N\C(=S)N(C)C)n1-c1ccc(Cl)c(Cl)c1 | > 100 µM (inactive) | > 100 µM (inactive) | > 100 µM (inactive) | > 100 µM (inactive) | > 100 µM (inactive) | > 100 µM (inactive) | > 100 µM (inactive) | > 100 µM (inactive) | > 100 µM (inactive) | > 100 µM (inactive) | > 100 µM (inactive) | 40.6 µM (inactive) | > 100 µM (inactive) | > 100 µM (inactive) | > 100 | – | – | – | – | –
O=C1Nc2ccccc2C(=O)O/C(Cc2ccccc2)=N\c2ccccc21 | 36.1 µM (inactive) | > 100 µM (inactive) | > 100 µM (inactive) | > 100 µM (inactive) | 82.8 µM (inactive) | – | > 100 µM (inactive) | > 100 µM (inactive) | > 100 µM (inactive) | > 100 µM (inactive) | > 100 µM (inactive) | > 100 µM (inactive) | > 100 µM (inactive) | > 100 µM (inactive) | > 100 | > 100 µM (inactive) | > 100 µM (inactive) | > 100 µM (inactive) | > 100 µM (inactive) | –
Brc1ccc2c(-c3csc(-c4c[nH]c5ccccc45)n3)c[nH]c2c1 | 14.7 µM (inactive) | 13.8 µM (inactive) | 14.2 µM (inactive) | 12.8 µM (inactive) | 15.1 µM (inactive) | 17 µM (inactive) | 14.3 µM (inactive) | 16.1 µM (inactive) | 17.8 µM (inactive) | 14 µM (inactive) | 16.1 µM (inactive) | 15 µM (inactive) | 15.7 µM (inactive) | – | – | 24.8 µM (inactive) | – | 15.6 µM (inactive) | 14.9 µM (inactive) | 16.1 µM (inactive)
O=CC12C3CCC1C2C(=O)C3 (stereo not drawn) | > 100 µM (inactive) | > 100 µM (inactive) | > 100 µM (inactive) | > 100 µM (inactive) | > 100 µM (inactive) | – | > 100 µM (inactive) | > 100 µM (inactive) | > 100 µM (inactive) | – | > 100 µM (inactive) | > 100 µM (inactive) | > 100 µM (inactive) | – | > 100 | – | > 100 µM (inactive) | > 100 µM (inactive) | > 100 µM (inactive) | > 100 µM (inactive)
Cc1ccc(-c2cc[n+]3c(n2)oc2ccccc23)cc1 | 10.3 µM (inactive) | 17.7 µM (inactive) | 47.1 µM (inactive) | 12.4 µM (inactive) | 30.5 µM (inactive) | 19.1 µM (inactive) | 25.9 µM (inactive) | 72.8 µM (inactive) | 69.8 µM (inactive) | 67.3 µM (inactive) | 39.7 µM (inactive) | – | 28.6 µM (inactive) | 10.8 µM (inactive) | > 100 | 16.3 µM (inactive) | 30.8 µM (inactive) | – | 24.7 µM (inactive) | 75.2 µM (inactive)
CCN(CC)CCNc1ccc2nnn3c4ccccc4c(=O)c1c23 | 2.86 µM (inactive) | 5.07 µM (inactive) | 4.01 µM (inactive) | 3.55 µM (inactive) | 7.31 µM (inactive) | 11.4 µM (inactive) | 3.86 µM (inactive) | 2.25 µM (inactive) | 5.74 µM (inactive) | 4.46 µM (inactive) | 3.67 µM (inactive) | 4.18 µM (inactive) | 3.24 µM (inactive) | 2.89 µM (inactive) | 4.51 | – | – | – | – | –
Cc1cc(N(C)c2ccccc2)nc(N(C)c2ccccc2)n1 | 23.6 µM (inactive) | 33 µM (inactive) | 18.1 µM (inactive) | 23.9 µM (inactive) | 36.9 µM (inactive) | 64.9 µM (inactive) | 41.3 µM (inactive) | 49.9 µM (inactive) | 88.1 µM (inactive) | 80.2 µM (inactive) | 21.2 µM (inactive) | 31.2 µM (inactive) | 28.4 µM (inactive) | 37.8 µM (inactive) | 32.1 | – | 33.7 µM (inactive) | 43.3 µM (inactive) | 42.9 µM (inactive) | 33.2 µM (inactive)
